Test results as given in patent US20170253607A1, “LONG-ACTING HIV PROTEASE INHIBITOR” (Shionogi & Co., Ltd., priority 2014, published 2017).

Target: HIV-1 PR (Human immunodeficiency virus type 1 group M subtype B, UniProt P04585)
Assay: HIV-protease inhibitory activity assay (FRET peptide substrate)
Format: biochemical
Conditions: Test Example 1
Outline: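 HIV-1 PR (0.83 ng) preincubated with compounds 20 min at room temperature in 0.1 mol/L NaAc, 0.5 mol/L NaCl, 1 mmol/L EDTA, 1 mmol/L DTT, 0.05% Tween 20, pH 4.8. Cleavage of HiLyte Fluor 488/QXL 520 FRET peptide (2 μmol/L) read after 60 minutes at 485/535 nm; IC50 from four-parameter logistic fit.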

Compound | IC50 [nM]
CC(C)CN(CC(O)C(Cc1ccc(OCc2ccc(-c3ccc(F)cc3F)nc2C(=O)O)cc1)NC(=O)OC1COC2OCCC12)S(=O)(=O)c1ccc2ncsc2c1 (stereo not drawn) [Compound I-840] | 0.71
COc1ccc(S(=O)(=O)N(CC(C)C)CC(O)C(Cc2ccc(NCc3cnc4ccc(-c5sc6c(c5C(=O)O)CC(C)(C)CC6)cn34)cc2)NC(=O)OC2COC3(C)OCCC23)cc1 (stereo not drawn) [Compound I-286] | 2.06
COc1ccc(S(=O)(=O)N(CC(C)C)CC(O)C(Cc2ccc(NCc3ccccc3-c3c(C(=O)O)c4ccccc4n3C)cc2)NC(=O)OC2COC3(C)OCCC23)cc1 (stereo not drawn) [Compound I-411] | 1.3
COc1ccc(S(=O)(=O)N(CC(C)C)CC(O)C(Cc2ccc(OCc3ccc(-c4ccc(F)cc4F)c(C(=O)O)c3)cc2)NC(=O)OC2COC3(C)OCCC23)cc1 (stereo not drawn) [Compound I-152] | 1.15
COc1ccc(S(=O)(=O)N(CC(C)C)CC(O)C(Cc2ccc(NCc3cc(F)cc(-c4sc5c(c4C(=O)O)CC(C)(C)CC5)c3)cc2)NC(=O)OC2COC3(C)OCCC23)cc1 (stereo not drawn) [Compound I-296] | 1.91
COc1ccc(S(=O)(=O)N(CC(C)C)CC(O)C(Cc2ccc(N(Cc3ccccc3-c3sc4c(c3C(=O)O)CC(C)(C)CC4)CC3CCCC3)cc2)NC(=O)OC2COC3(C)OCCC23)cc1 (stereo not drawn) [Compound I-456] | 13.6
COc1ccc(S(=O)(=O)N(CC(C)C)CC(O)C(Cc2ccc(N(Cc3nccs3)Cc3ccccc3-c3sc4c(c3C(=O)O)CC(C)(C)CC4)cc2)NC(=O)OC2COC3(C)OCCC23)cc1 (stereo not drawn) [Compound I-431] | 3.72
CCCCC1(Cc2ccc(COc3ccc(CC(NC(=O)OC4COC5(C)OCCC45)C(O)CN(CC(C)C)S(=O)(=O)c4ccc(OC)cc4)cc3)cc2)C(=O)N(c2ccccc2)N(c2ccccc2)C1=O (stereo not drawn) [Compound I-76] | 1.35
COc1ccc(S(=O)(=O)N(CC(C)C)CC(O)C(Cc2ccc(NCc3c(C(=O)O)[nH]c4ccc(Cl)cc34)cc2)NC(=O)OC2COC3(C)OCCC23)cc1 (stereo not drawn) [Compound I-319] | 2.09
COc1ccc(S(=O)(=O)N(CC(C)C)CC(O)C(Cc2ccc(NCc3ccccc3-c3ccc(OC(F)(F)F)cc3C(=O)O)cc2)NC(=O)OC2COC3(C)OCCC23)cc1 (stereo not drawn) [Compound I-499] | 1.73
COc1ccc(S(=O)(=O)N(CC(C)C)CC(O)C(Cc2ccc(C3=CCC(c4sc5c(c4C(=O)O)CC(C)(C)CC5)CC3)cc2)NC(=O)OC2COC3(C)OCCC23)cc1 (stereo not drawn) [Compound I-202] | 12.1
COc1ccc(S(=O)(=O)N(CC(C)C)CC(O)C(Cc2ccc(NCc3cc(-c4sc5c(c4C(=O)O)CC(C)(C)CC5)ccc3F)cc2)NC(=O)OC2COC3(C)OCCC23)cc1 (stereo not drawn) [Compound I-280] | 3.24
COc1ccc(S(=O)(=O)N(CC(C)C)CC(O)C(Cc2ccc(NCc3ccccc3-c3sc4c(c3C(=O)O)CC(C)(C)CC4)cc2)NC(=O)OC2COC3OCC(OC)C23)cc1 (stereo not drawn) [Compound I-853] | 1.98
COc1ccc(S(=O)(=O)N(CC(C)C)CC(O)C(Cc2ccc(NCC3CCCCC3C(=O)Nc3sc4c(c3C(=O)O)CC(C)(C)CC4)cc2)NC(=O)OC2COC3(C)OCCC23)cc1 (stereo not drawn) [Compound I-615] | 3.37
COc1ccc(S(=O)(=O)N(CC(C)C)CC(O)C(Cc2ccc(CN(C)C3CCCCC3c3sc4c(c3C(=O)O)CC(C)(C)CC4)cc2)NC(=O)OC2COC3(C)OCCC23)cc1 (stereo not drawn) [Compound I-345] | 1.82
COc1ccc(S(=O)(=O)N(CC(C)C)CC(O)C(Cc2ccc(N(CCCCc3ccccc3)Cc3ccccc3-c3sc4c(c3C(=O)O)CC(C)(C)CC4)cc2)NC(=O)OC2COC3(C)OCCC23)cc1 (stereo not drawn) [Compound I-432] | 8.42
COc1ccc(S(=O)(=O)N(CC(C)C)CC(O)C(Cc2ccc(NCc3ccccc3-c3c(C(=O)O)cnc4onc(C)c34)cc2)NC(=O)OC2COC3(C)OCCC23)cc1 (stereo not drawn) [Compound I-505] | 1.55

Compound | IC50 [nM]
COc1ccc(S(=O)(=O)N(CC(C)C)CC(O)C(Cc2ccc(NCC3=C(c4sc5c(c4C(=O)O)CC(C)(C)CC5)C4CC(C3)C4(C)C)cc2)NC(=O)OC2COC3(C)OCCC23)cc1 (stereo not drawn) [Compound I-626] | 4.58
COc1ccc(S(=O)(=O)N(CC2CCCC2)CC(O)C(Cc2ccc(OCc3nn(C)cc3-c3sc4c(c3C(=O)O)CC(C)(C)CC4)cc2)NC(=O)OC2COC3(C)OCCC23)cc1 (stereo not drawn) [Compound I-199] | 2.35
COc1ccc(S(=O)(=O)N(CC(C)C)CC(O)C(Cc2ccc(OCc3ccccc3-c3ccc(-n4nc5c(c4C(=O)O)CC(C)(C)CC5)cc3)cc2)NC(=O)OC2COC3(C)OCCC23)cc1 (stereo not drawn) [Compound I-301] | 3.14
COc1ccc(S(=O)(=O)N(CC2CCC2)CC(O)C(Cc2ccc(N(C)Cc3ccccc3C(=O)Nc3sc4c(c3C(=O)O)CC(C)(C)CC4)cc2)NC(=O)OC2COC3(C)OCCC23)cc1 (stereo not drawn) [Compound I-682] | 4.37
CC(C)CN(C[C@@H](O)[C@H](Cc1ccc(OCc2ccc(-c3ccc(F)cc3F)cc2C(=O)O)cc1)NC(=O)O[C@H]1CO[C@@]2(C)OCC[C@@H]12)S(=O)(=O)c1ccc2ncsc2c1 [Compound I-18] | 1.63
CC(C)CN(C[C@@H](O)[C@H](Cc1ccccc1)NC(=O)O[C@H]1CO[C@@]2(C)OCC[C@@H]12)S(=O)(=O)c1ccc2nc(NCCCCOc3ccc(-c4sc5c(c4C(=O)O)CC(C)(C)CC5)cc3)sc2c1 [Compound I-27] | 3.7
COc1ccc(S(=O)(=O)N(CC(C)C)C[C@@H](O)[C@H](Cc2ccc(OCc3ccc(-c4ccc(F)cc4F)cc3C(=O)NC(=O)NC(C)(C)C)cc2)NC(=O)O[C@H]2CO[C@@]3(C)OCC[C@@H]23)cc1 [Compound I-25] | 2.07
COc1ccc(S(=O)(=O)N(CC(C)C)CC(O)C(Cc2ccc(N(C)CCn3nc4c(c3C(=O)O)CC(C)(C)CC4)cc2)NC(=O)OC2COC3(C)OCCC23)cc1 (stereo not drawn) [Compound I-517] | 2.56
CC(C)CN(CC(O)C(Cc1ccc(NCc2ccccc2-c2sc3c(c2C(=O)O)CC(C)(C)CC3)cc1)NC(=O)OC1COC2(C)OCCC12)S(=O)(=O)c1ccc2nc(O)sc2c1 (stereo not drawn) [Compound I-482] | 2.27
COc1ccc(S(=O)(=O)N(CC(C)C)CC(O)C(Cc2ccc(OCc3ccccc3-c3sc(Oc4ccccc4)nc3C(=O)O)cc2)NC(=O)OC2COC3OCCC23)cc1 (stereo not drawn) [Compound I-843] | 1.33
CC(C)CN(CC(O)C(Cc1ccc(NCc2ccccc2-c2sc3c(c2C(=O)O)CC(C)(C)CC3)cc1)NC(=O)OC1COC2(C)OCCC12)S(=O)(=O)c1ccc(N)cc1 (stereo not drawn) [Compound I-476] | 1.99
COc1ccc(S(=O)(=O)N(CC(C)C)CC(O)C(Cc2ccc(N(C)Cc3cccnc3-c3sc4c(c3C(=O)O)CC(C)(C)CC4)cc2)NC(=O)OC2COC3(C)OCCC23)cc1 (stereo not drawn) [Compound I-129] | 3.09
COc1ccc(S(=O)(=O)N(CC(C)C)CC(O)C(Cc2ccc(N3CCC(c4ccc(-c5sc6c(c5C(=O)O)CC(C)(C)CC6)cc4)C3)cc2)NC(=O)OC2COC3(C)OCCC23)cc1 (stereo not drawn) [Compound I-576] | 4.95
COc1ccc(S(=O)(=O)N(CC(C)C)CC(O)C(Cc2ccc(OCc3ccccc3-c3ccc4c(C(=O)O)c(-c5ccc(Cl)cc5C)sc4c3)cc2)NC(=O)OC2COC3(C)OCCC23)cc1 (stereo not drawn) [Compound I-73] | 4.73
COc1ccc(S(=O)(=O)N(CC(C)C)CC(O)C(Cc2ccc(NCc3cc(-c4sc5c(c4C(=O)O)CC(C)(C)CC5)ccc3OC(F)(F)F)cc2)NC(=O)OC2COC3(C)OCCC23)cc1 (stereo not drawn) [Compound I-294] | 3.92
COc1ccc(S(=O)(=O)N(CC(C)C)CC(O)C(Cc2ccc(NCC3CCCC3c3sc4c(c3C(=O)O)CC(C)(C)CC4)cc2)NC(=O)OC2COC3(C)OCCC23)cc1 (stereo not drawn) [Compound I-670] | 2.67
